The structures appear in SMILES notation. Converted amounts (≈) assume the structure as drawn. Read-outs that look alike come from different tables or passages of the source.

For the assay, the system named is Aspergillus fumigatus. The assay is described as follows: MIC measurement, YAG medium. The format is cell-based. The settings on record: Aspergillus fumigatus, read-out: MIC A. fumigatus. The protocol:
Between 1 and 5 mgs of compound were accurately weighed out into a sterile Eppendorf tube. The compound was dissolved in DMSO to give a solution containing […]. Tubes were stored at −20° C. until required.
On the day of testing thawed solutions were vortex mixed to ensure homogeneity. 30 μL of solution was removed and added to 570 μL of sterile water in a separate sterile Eppendorf. The thoroughly mixed solution was used to prepare a series of doubling dilutions in water, in a deep well plate. Thirteen replicate plates were prepared using a Minitrak by aspirating 20 μL from each well into eleven clear polystyrene 96 well plates.
Spores of Aspergillus spp. (Aspergillus fumigatus [two strains], Aspergillus terreus [two strains], Aspergillus niger and Aspergillus flavus) were harvested from cultures grown on Sabarauds agar for 5 days, and resuspended in PBS/Tween 80 to approx 1×10^7 cfu/mL. Other filamentous fungi (Absidia corymbifera, Fusarium solani, Rhizomucor, Scedosporium spp., Trichophyton spp.), were grown on Sabarauds agar for 2-10 days and spores/hyphae resuspended in PBS/Tween to give approx 1×10^7 cfu/mL. Candida species (Candida albicans, Candida glabrata, Candida krusei, Candida parapsilosis and Candida tropicalis) were grown on Sabarauds agar, cells were harvested from the agar using a sterile loop and resuspended in PBS/Tween 80 to approx 1×10^6 cfu/mL. Each organism suspension was diluted in RPMI medium, containing 2% glucose and 0.135 M MOPS buffer (pH 7.0) to 0.5-2×10^4 cfu/mL for Aspergillus spp. and other filamentous fungi and 0.5-2×10^3 cfu/mL for yeast. 80 μL of an organism suspension was added to each well of the plate containing drug dilutions.
This produced MIC plates with a drug range 50-0.05 mg/L and organism inocula of 1-2×10^4 cfu/mL for Aspergillus spp. and other filamentous fungi and 1-2×10^3 cfu/mL for yeasts. All plates were incubated for 24-48 hrs at 35° C. Growth was assessed by monitoring the optical density at 485 nm for each well. The MIC of a compound is the lowest drug concentration that inhibits growth of an organism by >80% compared with a drug free control. MICs are recorded as mg/L. Other growth media can be used for susceptibility testing, and the activity of the described compounds can also be assessed in a medium comprising 1% glucose, 1% ammonium chloride and 0.5% yeast extract (YAG medium). To perform MIC tests in this medium, dilutions of compounds are prepared in microtitre plates as described above. Fungal strains to be tested are grown and harvested in an identical manner to that described above, each organism suspension is then diluted in YAG medium to 0.5-2×10^4 cfu/mL for Aspergillus spp. and other filamentous fungi and 0.5-2×10^3 cfu/mL for yeast. 80 μL of an organism suspension was added to each well of the plate containing drug dilutions. This produced MIC plates with a drug range 50-0.05 mg/L and organism inocula of 1-2×10^4 cfu/mL for Aspergillus spp. and other filamentous fungi and 1-2×10^3 cfu/mL for yeasts. All plates were incubated for 24 hrs at 35° C. Growth was assessed by monitoring the optical density at 485 nm for each well. The MIC of a compound is the lowest drug concentration that inhibits growth of an organism by >70% compared with a drug free control. MICs are recorded as mg/L. In cases where the MIC of an organism is […] mg/L the MIC is repeated using a concentration range of 0.5-0.0005 mg/L. MIC tests in YAG medium have more clear-cut endpoints and have slightly lower MICs than those performed in RPMI medium.
The following organisms were tested: Absidia corymbifera, Aspergillus flavus, Aspergillus fumigatus AF293 and AF210, Aspergillus niger, Aspergillus terreus AT4 and AT49, Candida albicans, Candida glabrata, Candida krusei, Candida parapsilosis, Candida tropicalis, Fusarium solani, Rhizomucor sp., Scedosporium apiospermum, Scedosporium prolificans, Trichophyton mentagrophytes, and Trichophyton rubrum.

Setting [1] is: YAG medium, MIC banded into grades, strain AF293.

One may read the MIC as the least concentration at which growth counts as inhibited. For `O=C1Cc2cc(NC(=O)C(=O)c3c(-c4ccccc4)cc4ccccn34)ccc2N1` [Example 9, 2-Oxo-N-(2-oxo-2,3-dihydro-1H-indol-5-yl)-2-(2-phenyl-indolizin-3-yl)-acetamide], the MIC was more than 10 µg/mL.

For the compound `Cc1nccn1CCCOc1ccc(NC(=O)C(=O)c2c(-c3ccccc3)cc3ccccn23)cc1C(C)C` [Example 20, N-{3-Isopropyl-4-[3-(2-methyl-imidazol-1-yl)-propoxy]-phenyl}-2-oxo-2-(2-phenyl-indolizin-3-yl)-acetamide], under setting [1], the minimal inhibitory concentration (MIC) lay in the range of 1 to 10 µg/mL (≈ 1.92 to 19.2 µM).

On to `O=C(Nc1ccc(N2CCN(S(=O)(=O)c3cccnc3)CC2)cc1)C(=O)c1c(-c2ccccc2)cc2ccccn12` [Example 51, 2-Oxo-2-(2-phenyl-indolizin-3-yl)-N-{4-[4-(pyridine-3-sulfonyl)-piperazin-1-yl]-phenyl}-acetamide], for which the minimum inhibitory concentration (MIC) under setting [1] is less than 1 µg/mL.

In the case of `CC(C)c1nccn1CCOC(=O)C(C)(C)c1ccc(NC(=O)C(=O)c2c(-c3ccccc3)cc3ccccn23)cc1` [Example 18, 2-methyl-2-{4-[2-oxo-2-(2-phenyl-indolizin-3-yl)-acetylamino]-phenyl}-propionic acid 2-(2-isopropyl-imidazol-1-yl)-ethyl ester], the MIC under setting [1] was more than 10 µg/mL.

As to `O=C(Nc1ccccc1F)C(=O)c1c(-c2ccccc2)cc2ccc3ccccc3n12` [Example 4, N-(2-fluoro-phenyl)-2-oxo-2-(2-phenyl-pyrrolo[1,2-a]quinolin-1-yl)-acetamide], under setting [1], the MIC was more than 10 µg/mL.

`C=C(C)CN1CCN(c2ccc(NC(=O)C(=O)c3c(-c4ccc(N5CCOCC5)cc4)cc4ccccn34)cc2)CC1` [Example 40, N-{4-[4-(2-Methyl-allyl)-piperazin-1-yl]-phenyl}-2-[2-(4-morpholin-4-yl-phenyl)-indolizin-3-yl]-2-oxo-acetamide]: under setting [1], the minimum inhibitory concentration (MIC) was more than 10 µg/mL.

Take `Cc1cc(C)nc(CNc2ccc(NC(=O)C(=O)c3c(-c4ccccc4)cc4ccccn34)cc2)c1` [Example 91, N-{4-[(4,6-Dimethyl-pyridin-2-ylmethyl)-amino]-phenyl}-2-oxo-2-(2-phenyl-indolizin-3-yl)-acetamide]: the minimal inhibitory concentration (MIC) under setting [1] was less than 1 µg/mL.

Consider `O=C(Nc1ccc(N2CCN(c3cc(OCCO)ccn3)CC2)cc1)C(=O)c1c(-c2ccccc2)cc2ccccn12` [Example 89, N-(4-{4-[4-(2-Hydroxy-ethoxy)-pyridin-2-yl]-piperazin-1-yl}-phenyl)-2-oxo-2-(2-phenyl-indolizin-3-yl)-acetamide], for which the minimal inhibitory concentration (MIC) under setting [1] was in the range of 1 to 10 µg/mL (≈ 1.78 to 17.8 µM).

For `O=C(Nc1ccc(N2CCN(c3cccc(CCO)n3)CC2)cc1)C(=O)c1c(-c2ccccc2)cc2ccccn12` [Example 88, N-(4-{4-[6-(2-hydroxy-ethyl)-pyridin-2-yl]-piperazin-1-yl}-phenyl)-2-oxo-2-(2-phenyl-indolizin-3-yl)-acetamide], the MIC under setting [1] is less than 1 µg/mL.

As to `O=C(Nc1ccc(N2CCN(CCc3ccco3)CC2)cc1)C(=O)c1c(-c2ccccc2)cc2ccccn12` [Example 39, N-{4-[4-(2-Furan-2-yl-ethyl)-piperazin-1-yl]-phenyl}-2-oxo-2-(2-phenyl-indolizin-3-yl)-acetamide], the minimal inhibitory concentration (MIC) under setting [1] was less than 1 µg/mL.

For `Cc1cc(OCCOc2ccc(NC(=O)C(=O)c3c(-c4ccccc4)cc4ccccn34)cc2)cc(C)n1` [Example 71, N-{4-[2-(2,6-Dimethyl-pyridin-4-yloxy)-ethoxy]-phenyl}-2-oxo-2-(2-phenyl-indolizin-3-yl)-acetamide], the MIC under setting [1] was less than 1 µg/mL.

As to `O=C(Nc1ccc(-c2cocn2)cc1)C(=O)c1c(-c2ccc(-c3ccccc3)cc2)cc2ccccn12` [Example 85, 2-(2-Biphenyl-4-yl-indolizin-3-yl)-N-(4-oxazol-4-yl-phenyl)-2-oxo-acetamide], the MIC under setting [1] is more than 10 µg/mL.

As for `Cc1cc(C)nc(NCCN(C)c2ccc(NC(=O)C(=O)c3c(-c4ccccc4)cc4ccccn34)cc2)c1` [Example 69, N-(4-{[2-(4,6-dimethyl-pyridin-2-ylamino)-ethyl]-methyl-amino}-phenyl)-2-oxo-2-(2-phenyl-indolizin-3-yl)-acetamide], the MIC under setting [1] was less than 1 µg/mL.

As for `COCc1cc(N2CCN(c3cc(C)cc(C)n3)CC2)ccc1NC(=O)C(=O)c1c(-c2ccccc2)cc2ccccn12` [Example 83, N-{4-[4-(4,6-Dimethyl-pyridin-2-yl)-piperazin-1-yl]-2-methoxymethyl-phenyl}-2-oxo-2-(2-phenyl-indolizin-3-yl)-acetamide], the MIC under setting [1] was less than 1 µg/mL.

Consider `Cc1cc(C)nc(NCCNc2ccc(NC(=O)C(=O)c3c(-c4ccccc4)cc4ccccn34)cc2)c1` [Example 92, N-{4-[2-(4,6-dimethyl-pyridin-2-yl-amino)-ethylamino]-phenyl}-2-oxo-2-(2-phenyl-indolizin-3-yl)-acetamide], for which the MIC under setting [1] was less than 1 µg/mL.

For the compound `CCc1cccc(N2CCN(c3ccc(NC(=O)C(=O)c4c(-c5ccccc5)cc5ccccn45)cc3)CC2)n1` [Example 73, N-{4-[4-(6-ethyl-pyridin-2-yl)-piperazin-1-yl]-phenyl}-2-oxo-2-(2-phenyl-indolizin-3-yl)-acetamide], the MIC under setting [1] is less than 1 µg/mL.

As to `CCC(CC)N1CCN(c2ccc(NC(=O)C(=O)c3c(-c4ccccc4Cl)cc4ccccn34)cn2)CC1` [Example 10, 2-[2-(2-chloro-phenyl)-indolizin-3-yl]-N-{6-[4-(1-ethyl-propyl)-piperazin-1-yl]-pyridin-3-yl}-2-oxo-acetamide], under setting [1], the MIC was less than 1 µg/mL.

`Cc1cccc(N2CCN(c3ccc(NC(=O)C(=O)c4c(-c5ccccc5)cc5ccccn45)cc3)CC2)n1` [Example 43, N-{4-[4-(6-Methyl-pyridin-2-yl)-piperazin-1-yl]-phenyl}-2-oxo-2-(2-phenyl-indolizin-3-yl)-acetainide]: under setting [1], the MIC is less than 1 µg/mL.

With `Cc1cc(C)nc(N2CCN(c3ccc(NC(=O)C(=O)c4c(C5CCCC5)cc5ccccn45)cc3)CC2)c1` [Example 47, 2-(2-Cyclopentyl-indolizin-3-yl)-N-{4-[4-(4,6-dimethyl-pyridin-2-yl)-piperazin-1-yl]-phenyl}-2-oxo-acetamide], under setting [1], the minimal inhibitory concentration (MIC) is less than 1 µg/mL.

As for `COCCN(C)c1ccc(N2CCN(c3ccc(NC(=O)C(=O)c4c(-c5ccccc5)cc5ccccn45)cc3)CC2)cn1` [Example 68, N-[4-(4-{6-[(2-Methoxy-ethyl)-methyl-amino]-pyridin-3-yl}-piperazin-1-yl)-phenyl]-2-oxo-2-(2-phenyl-indolizin-3-yl)-acetamide], the MIC under setting [1] is less than 1 µg/mL.

In the case of `CC(C)c1nc(C(C)(C)c2cccc(NC(=O)C(=O)c3c(-c4ccccc4)cc4ccccn34)c2)cn1C` [Example 14, N-{3-[1-(2-Isopropyl-1-methyl-1H-imidazol-4-yl)-1-methyl-ethyl]-phenyl}-2-oxo-2-(2-phenyl-indolizin-3-yl)-acetamide], the MIC under setting [1] is more than 10 µg/mL.

On to `Cc1cc(N2CCN(c3ccc(NC(=O)C(=O)c4c(-c5ccccc5)cc5ccccn45)cc3)CC2)cc(C)n1` [Example 52, N-{4-[4-(2,6-Dimethyl-pyridin-4-yl)-piperazin-1-yl]-phenyl}-2-oxo-2-(2-phenyl-indolizin-3-yl)-acetamide], for which, under setting [1], the MIC was more than 10 µg/mL.

In the case of `CCc1ccnc(N2CCN(c3ccc(NC(=O)C(=O)c4c(-c5ccccc5)cc5ccccn45)cc3)CC2)c1` [Example 75, N-{4-[4-(4-ethyl-pyridin-2-yl)-piperazin-1-yl]-phenyl}-2-oxo-2-(2-phenyl-indolizin-3-yl)-acetamide], the MIC under setting [1] is less than 1 µg/mL.

For the compound `Cc1cc(C)nc(N2CCC(O)(c3ccc(NC(=O)C(=O)c4c(-c5ccccc5)cc5ccccn45)cc3)CC2)c1` [Example 79, N-[4-(4-hydroxy-4′,6′-dimethyl-3,4,5,6-tetrahydro-2H-[1,2′]-bipyridinyl-4-yl)-phenyl]-2-oxo-2-(2-phenyl-indolizin-3-yl)-acetamide], the MIC under setting [1] is more than 10 µg/mL.

Source of the values: patent US8604029B2, “2-[(2-substituted)-indolizin-3-yl]-2-oxo-acetamide derivatives as antifungal agents” (F2G Ltd British Body Corporate, priority 2006, dated 2013).
